ChEMBL document CHEMBL1177695, “Discovery and development of natural product-derived chemotherapeutic agents based on a medicinal chemistry approach” (J Nat Prod, 2010)
Values after ≈ are worked out from the molar mass of the structure shown. Each block holds one compound with its values, some of them ahead of it.

Tests used:
melanoma (human) = assay: Growth inhibition of human melanoma cells; settings: Melanoma tumor cell line
[1] = test system: Human immunodeficiency virus 1; assay: Antiviral activity against HIV1 infected in human CEM-SS cells assessed as inhibition of viral replication; assay type: functional, organism-based; settings: Human immunodeficiency virus 1, CEM-SS
[2] = test system: Human immunodeficiency virus 1; assay: Antiviral activity against HIV1 PI-R; assay type: functional, organism-based; settings: Human immunodeficiency virus 1, PI-R
[3] = test system: Human immunodeficiency virus 1; assay: Antiviral activity against HIV1 NL4-3; assay type: functional, organism-based; settings: Human immunodeficiency virus 1, NL4-3
[4] = test system: Human immunodeficiency virus 1; assay: Antiviral activity against HIV1 3B infected in H9 cells assessed as inhibition of viral replication by p24 antigen ELISA; assay type: functional, organism-based; settings: Human immunodeficiency virus 1, 3B, H9; read-out: EC50
[5] = Oral bioavailability in rat; assay type: ADME, organism-based; settings: in vivo
[6] = Therapeutic index, ratio of IC50 for human H9 cells to EC50 for HIV 3B; assay type: cell-based; settings: read-out: TI
MDA-MB-231 = assay: Cytotoxicity against human MDA-MB-231 cells after 72 hrs by MTT assay; assay type: functional, cell-based; settings: MDA-MB-231, 72 h
MCF7 = assay: Cytotoxicity against human MCF7 cells after 72 hrs by MTT assay; assay type: functional, cell-based; settings: MCF7, 72 h
[7] = Cytotoxicity against human Hep3B cells after 72 hrs by MTT assay; assay type: functional, cell-based, Hep 3B2
[8] = Growth inhibition of human renal cancer cells; assay type: functional; settings: Cancer cell lines
[9] = Growth inhibition of human lung cancer cells; assay type: functional; settings: Cancer cell lines
[10] = Growth inhibition of human melanoma cells; assay type: functional; settings: Melanoma cell
[11] = Growth inhibition of human ovarian cancer cells; assay type: functional; settings: Cancer cell lines
[12] = Growth inhibition of human leukemia cells; assay type: functional; settings: Leukemia cell
[13] = Growth inhibition of human CNS cancer cells; assay type: functional; settings: Cancer cell lines
[14] = Growth inhibition of human colon cancer cells; assay type: functional; settings: Cancer cell lines

Compound: CC(C)C[C@@H](NC(=O)[C@]12CCC(C)(C)C=C1[C@H]1CC[C@@H]3[C@@]4(C)CC[C@H](OC(=O)CC(C)(C)C(=O)O)C(C)(C)[C@@H]4CC[C@@]3(C)[C@]1(C)CC2)C(=O)O
EC50 [2]: 21 nM | EC50 [3]: 8.5 nM

Compound: O=C1C=CC(O)(c2cc(=O)c3c(ccc4ccccc43)o2)C=C1
IC50 (MDA-MB-231): 0.39 µg/mL (≈ 1.28 µM) | IC50 (MCF7): 0.66 µg/mL (≈ 2.17 µM) | IC50 [7]: 0.3 µg/mL (≈ 0.986 µM)

Compound: COC(=O)[C@]12OC[C@]34[C@H]([C@@H](O)[C@@H]1O)[C@@]1(C)CC(=O)C(O)=C(C)[C@@H]1C[C@H]3OC(=O)[C@H](OC(=O)/C=C(/C)C(F)(F)F)[C@@H]24
GI50 [8]: 100 nM | GI50 [9]: 100 nM | GI50 [10]: 100 nM | GI50 [11]: 100 nM | GI50 [12]: 100 nM | GI50 [13]: 100 nM | GI50 [14]: 100 nM

The next lines start with results.

GI50 (melanoma (human)): 18.2 nM
Compound: O=C1c2ccsc2C(=O)c2sc(CO)cc21

EC50 [1]: 64 nM
Compound: Cc1cc(=S)oc2c3c(ccc12)OC(C)(C)[C@H](OC(=O)C12CCC(C)(C(=O)O1)C2(C)C)[C@@H]3OC(=O)C12CCC(C)(C(=O)O1)C2(C)C (some centres not stated)

EC50 [4]: 4.2 nM | bioavailability [5]: 15%
Compound: Cc1c(CO)c(=O)oc2c3c(ccc12)OC(C)(C)[C@H](OC(=O)C12CCC(C)(C(=O)O1)C2(C)C)[C@@H]3OC(=O)C12CCC(C)(C(=O)O1)C2(C)C (some centres not stated)
selectivity ratio [6]: 6000
